Measured values reported in patent US9763445B2, “Safened herbicidal compositions comprising a pyridine carboxylic acid herbicide” (Dow AgroSciences, LLC, priority 2014, dated 2017).

Experiments:
corn/maize (ZEAMX) = assay: Postemergence greenhouse trial, % visual injury on corn/maize; type: in vivo, Zea mays; conditions: for % visual injury, observed (Ob): ZEAMX; for % visual injury, Ob: alone, 35 g/ha
Description: (§1) Seeds of the desired test plant species were planted in Sun Gro MetroMix® 306 planting mixture, which typically has a pH of 6.0 to 6.8 and an organic matter content of about 30 percent, in plastic pots with a surface area of 103.2 square centimeters (cm^2). When required to ensure good germination and healthy plants, a fungicide treatment and/or other chemical or physical treatment was applied. The plants were grown for 7-36 days (d) in a greenhouse with an approximate 14-hour (h) photoperiod which was maintained at about 23° C. during the day and 22° C. during the night. Nutrients and water were added on a regular basis and supplemental lighting was provided with overhead metal halide 1000-Watt lamps as necessary. The plants were employed for testing when they reached the second or third true leaf stage.
(§2) Weighed amounts of technical material were dissolved in a volume of 97:3 volume per volume (v/v) acetone/dimethyl sulfoxide (DMSO) to stock solutions. […] The concentrated stock solutions were diluted with an aqueous mixture of 1.5% v/v of Agri-dex crop oil concentrate to provide the appropriate application rates. Compound requirements are based upon a 12 milliliter (mL) application volume at a rate of 187 liters per hectare (L/ha). Stocks solutions of the safeners were prepared following the same procedure. Spray solutions of the safeners and experimental compound mixtures were prepared by adding the stock solutions to the appropriate amount of dilution solution to form a 12 mL spray solution in two-way combinations. Formulated compounds were applied to the plant material with an overhead Mandel track sprayer equipped with 8002E nozzles calibrated to deliver 187 L/ha over an application area of 0.503 square meters (m^2) at a spray height of 18 inches (43 centimeters (cm)) above average plant canopy. Control plants were sprayed in the same manner with the solvent blank. All herbicide application (component a) rates are in g ae/ha and all safener (component b) rates are in g ai/ha.
(§3) The treated plants and control plants were placed in a greenhouse as described above and watered by sub-irrigation to prevent wash-off of the test compounds. After 20-22 d, the condition of the test plants as compared with that of the control plants was determined visually and scored on a scale of 0 to 100 percent where 0 corresponds to no injury and 100 corresponds to complete kill. The condition of the test plants was compared with that of the control plants as determined visually and scored on a scale of 0 to 100 percent, where 0 corresponds to no injury and 100 corresponds to complete kill. Colby's equation was used to determine the herbicidal effects expected from the mixtures.
(§4) The safener cloquintocet-mexyl was combined with compound 1, compound 2, compound 4, compound 5, and compound 6, and applied to corn/maize (ZEAMX) and spring wheat (TRZAS) and the phytotoxicity of the herbicidal compositions was measured. In addition, the efficacy of the herbicidal composition on velvetleaf (ABUTH, Abutilon theophrasti), pigweed (AMARE, Amaranthus retroflexus), winter rape (BRSNW, Brassica napus), lambsquarters (CHEAL, Chenopodium album), thistle (CIRAR, Cirsium arvense), nutsedge (CYPES, Cyperus esculentus), poinsettia (EPHHL, Euphorbia heterophylla), wild buckwheat (POLCO, Polygonum convolvulus), giant foxtail (SETFA, Setaria faberi), and chickweed (STEME, Stellaria media) was evaluated. […]

velvetleaf (ABUTH) = assay: Postemergence greenhouse trial, % visual injury on velvetleaf; type: in vivo, Abutilon theophrasti; conditions: alone, 35 g/ha
Description: as §1, §2, §3
The safener cloquintocet-mexyl was combined with compound 1, compound 2, compound 4, compound 5, and compound 6, and applied to corn/maize (ZEAMX) and spring wheat (TRZAS) and the phytotoxicity of the herbicidal compositions was measured. In addition, the efficacy of the herbicidal composition on velvetleaf (ABUTH, Abutilon theophrasti), pigweed (AMARE, Amaranthus retroflexus), winter rape (BRSNW, Brassica napus), lambsquarters (CHEAL, Chenopodium album), thistle (CIRAR, Cirsium arvense), nutsedge (CYPES, Cyperus esculentus), poinsettia (EPHHL, Euphorbia heterophylla), wild buckwheat (POLCO, Polygonum convolvulus), giant foxtail (SETFA, Setaria faberi), and chickweed (STEME, Stellaria media) was evaluated.
The safener cloquintocet-mexyl was combined with compound 1, compound 2, compound 3, compound 7, compound 8, compound 9, compound 10, compound 11, compound 12, compound 13, compound 14, compound 15, compound 16, compound 17, compound 18, compound 19, and compound 20, and applied to spring wheat (TRZAS), winter wheat (TRZAW), and spring barley (HORVS) and the phytotoxicity of the herbicidal compositions was measured. […]

poinsettia (EPHHL) = assay: Postemergence greenhouse trial, % visual injury on poinsettia; type: in vivo, Euphorbia heterophylla; conditions: alone, 35 g/ha
Description: as §1
Weighed amounts of technical material were dissolved in a volume of 97:3 volume per volume (v/v) acetone/dimethyl sulfoxide (DMSO) to stock solutions. […] The concentrated stock solutions were diluted with an aqueous mixture of 1.5% v/v of Agri-dex crop oil concentrate to provide the appropriate application rates. Compound requirements are based upon a 12 milliliter (mL) application volume at a rate of 187 liters per hectare (L/ha). Stocks solutions of the safeners were prepared following the same procedure. […]
as §3, with “Colby's equation was used to determine the herbicidal effects expected from the mixtures.” left out
as §4

common sunflower (HELAN) = assay: Postemergence greenhouse trial, % visual injury on common sunflower; type: in vivo, Helianthus annuus
Description: as §1, §2, §3
(§5) The safener cloquintocet-acid and a number of agriculturally acceptable esters and salts (-mexyl, -dimethylammonium salt and -triethylammonium salt) were combined in varying ratios with compound 1 and applied to spring wheat (TRZAS), winter wheat (TRZAW), and spring barley (HORVS), and the phytotoxicity of the herbicidal compositions was measured. In addition, the efficacy of the herbicidal composition on pigweed (AMARE, Amaranthus retroflexus), nutsedge (CYPES, Cyperus esculentus), common sunflower (HELAN, Helianthus annuus), and common sorghum (SORVU, Sorghum vulgare).

common sorghum (SORVU) = assay: Postemergence greenhouse trial, % visual injury on common sorghum; type: in vivo, Sorghum vulgare; conditions: for % visual injury, observed (Ob): SORVU
Description: as §1, §2
as §3, with “mixtures. […]” for “mixtures.”
as §5

wild pansy (VIOTR) = assay: Postemergence greenhouse trial, % visual injury on wild pansy; type: in vivo, Viola tricolor
Description: as §1, §2
as §3, with “mixtures. […]” for “mixtures.”

shepherd's purse (CAPBP) = assay: Postemergence greenhouse trial, % visual injury on shepherd's purse; type: in vivo, Capsella bursa-pastoris

In the case of CCCCCC(C)OC(=O)COc1ccc(Cl)c2cccnc12 (stereo not drawn) [CQC-m, cloquintocet-mexyl, reference compound], the “% visual injury, observed (Ob)” value (corn/maize (ZEAMX); safener alone 2.5 g/ha) is reported as 0%, the “% visual injury, observed (Ob)” value (corn/maize (ZEAMX); safener alone 5 g/ha) is reported as 0% and the “% visual injury, observed (Ob)” value (corn/maize (ZEAMX); safener alone 10 g/ha) is reported as 0%. The “% visual injury, observed (Ob)” value (corn/maize (ZEAMX); safener alone 20 g/ha) was 0%, the “% visual injury, Ob” value (corn/maize (ZEAMX)) was 0% and the “% visual injury, Ob” value (velvetleaf (ABUTH)) was 0%. For the same compound, the “% visual injury, Ob” value (poinsettia (EPHHL)) was 0%, the “% visual injury, observed (Ob)” value (common sunflower (HELAN); safener alone 2.5 g/ha) was 0% and the “% visual injury, observed (Ob)” value (common sunflower (HELAN); safener alone 5 g/ha) was 0%. The “% visual injury, observed (Ob)” value (common sunflower (HELAN); safener alone 10 g/ha) was 0%, the “% visual injury, observed (Ob)” value (common sunflower (HELAN); safener alone 20 g/ha) was 0% and the “% visual injury, observed (Ob)” value (common sorghum (SORVU); safener alone 2.5 g/ha) was 0%. The “% visual injury, observed (Ob)” value (common sorghum (SORVU); safener alone 5 g/ha) was 0%, the “% visual injury, observed (Ob)” value (common sorghum (SORVU); safener alone 10 g/ha) was 0% and the “% visual injury, observed (Ob)” value (common sorghum (SORVU); safener alone 20 g/ha) was 0%. The “% visual injury, Ob” value (common sorghum (SORVU); alone, 35 g/ha) was 0%, the “% visual injury, Ob” value (wild pansy (VIOTR); VIOTR, 4.375 g/ha, applied alone) was 0% and the “% visual injury, Ob” value (wild pansy (VIOTR); VIOTR, 8.75 g/ha, applied alone) was 0%. For the same compound, the “% visual injury, Ob” value (wild pansy (VIOTR); VIOTR, 17.5 g/ha, applied alone) was 0%, the “% visual injury, Ob” value (wild pansy (VIOTR); VIOTR, 35 g/ha, applied alone) was 0% and the “% visual injury, Ob” value (wild pansy (VIOTR); VIOTR, 70 g/ha, applied alone) was 0%. For the same compound, the “% visual injury, Ob” value (wild pansy (VIOTR); VIOTR, compound 0 g/ha, CQC-m 4.375 g/ha) was 0%, the “% visual injury, Ob” value (wild pansy (VIOTR); VIOTR, compound 0 g/ha, CQC-m 8.75 g/ha) was 0% and the “% visual injury, Ob” value (wild pansy (VIOTR); VIOTR, compound 0 g/ha, CQC-m 17.5 g/ha) was 0%. For the same compound, the “% visual injury, Ob” value (wild pansy (VIOTR); VIOTR, compound 0 g/ha, CQC-m 35 g/ha) was 0%, the “% visual injury, Ob” value (wild pansy (VIOTR); VIOTR, compound 0 g/ha, CQC-m 70 g/ha) was 0% and the “% visual injury, Ob” value (wild pansy (VIOTR); alone, 35 g/ha) was 0%. The “% visual injury, Ob” value (shepherd's purse (CAPBP); compound 0, CQC-m 4.375 g/ha) was 0%, the “% visual injury, Ob” value (shepherd's purse (CAPBP); compound 0, CQC-m 8.75 g/ha) was 0% and the “% visual injury, Ob” value (shepherd's purse (CAPBP); compound 0, CQC-m 17.5 g/ha) was 0%. For the same compound, the “% visual injury, Ob” value (shepherd's purse (CAPBP); compound 0, CQC-m 35 g/ha) was 0%, the “% visual injury, Ob” value (shepherd's purse (CAPBP); compound 0, CQC-m 70 g/ha) was 0% and the “% visual injury, Ob” value (shepherd's purse (CAPBP); compound 0 g/ha, CQC-m 4.375 g/ha) was 0%. The “% visual injury, Ob” value (shepherd's purse (CAPBP); compound 0 g/ha, CQC-m 8.75 g/ha) was 0%, the “% visual injury, Ob” value (shepherd's purse (CAPBP); compound 0 g/ha, CQC-m 17.5 g/ha) was 0% and the “% visual injury, Ob” value (shepherd's purse (CAPBP); compound 0 g/ha, CQC-m 35 g/ha) was 0%. For the same compound, the “% visual injury, Ob” value (shepherd's purse (CAPBP); compound 0 g/ha, CQC-m 70 g/ha) was 0%.
In the case of Nc1c(F)c(-c2ccc3cc[nH]c3c2F)nc(C(=O)O)c1Cl [compound 1], the “% visual injury, observed (Ob)” value (corn/maize (ZEAMX); compound 1 alone 20 g/ha) is reported as 3%, the “% visual injury, observed (Ob)” value (corn/maize (ZEAMX); compound 1 alone 40 g/ha) is reported as 30% and the “% visual injury, Ob” value (corn/maize (ZEAMX)) is reported as 40%. For the same compound, the “% visual injury, observed (Ob)” value (common sunflower (HELAN); compound 1 alone 20 g/ha) was 98%, the “% visual injury, observed (Ob)” value (common sunflower (HELAN); compound 1 alone 40 g/ha) was 100% and the “% visual injury, observed (Ob)” value (common sorghum (SORVU); compound 1 alone 20 g/ha) was 18%. The “% visual injury, observed (Ob)” value (common sorghum (SORVU); compound 1 alone 40 g/ha) was 68%.
Nc1c(F)c(-c2ccc3cc[nH]c3c2F)nc(C(=O)OCc2ccccc2)c1Cl [compound 2] was tested, and the “% visual injury, Ob” value (corn/maize (ZEAMX)) was 35%, the “% visual injury, Ob” value (velvetleaf (ABUTH)) was 80% and the “% visual injury, Ob” value (poinsettia (EPHHL)) was 100%. The “% visual injury, observed (Ob)” value (shepherd's purse (CAPBP); compound 2 4.380 + CQC-m 0 g/ha) was 20%, the “% visual injury, observed (Ob)” value (shepherd's purse (CAPBP); compound 2 8.75 + CQC-m 0 g/ha) was 30% and the “% visual injury, observed (Ob)” value (shepherd's purse (CAPBP); compound 2 17.5 + CQC-m 0 g/ha) was 100%. For the same compound, the “% visual injury, observed (Ob)” value (shepherd's purse (CAPBP); compound 2 35 + CQC-m 0 g/ha) was 100% and the “% visual injury, observed (Ob)” value (shepherd's purse (CAPBP); compound 2 70 + CQC-m 0 g/ha) was 100%.
With CO/C=N/c1c(F)c(-c2ccc3cc[nH]c3c2F)nc(C(=O)OC)c1Cl [compound 10] the “% visual injury, Ob” value (shepherd's purse (CAPBP); compound 8.75 g/ha, CQC-m 0) was 60% and the “% visual injury, Ob” value (shepherd's purse (CAPBP); compound 35 g/ha, CQC-m 0) was 100%.
For COC(=O)c1nc(-c2ccc3cc[nH]c3c2F)c(F)c(N)c1OC [compound 12], the “% visual injury, Ob” value (shepherd's purse (CAPBP); compound 8.75 g/ha, CQC-m 0) was 100% and the “% visual injury, Ob” value (shepherd's purse (CAPBP); compound 35 g/ha, CQC-m 0) was 100%.
With COc1c(C(=O)O)nc(-c2ccc3cc[nH]c3c2F)c(F)c1N [compound 13] the “% visual injury, Ob” value (shepherd's purse (CAPBP); compound 4.375 g/ha, CQC-m 0 g/ha) was 85%, the “% visual injury, Ob” value (shepherd's purse (CAPBP); compound 8.75 g/ha, CQC-m 0 g/ha) was 100% and the “% visual injury, Ob” value (shepherd's purse (CAPBP); compound 17.5 g/ha, CQC-m 0 g/ha) was 100%. For the same compound, the “% visual injury, Ob” value (shepherd's purse (CAPBP); compound 35 g/ha, CQC-m 0 g/ha) was 100% and the “% visual injury, Ob” value (shepherd's purse (CAPBP); compound 70 g/ha, CQC-m 0 g/ha) was 100%.
With Nc1cc(-c2ccc3cc[nH]c3c2F)nc(C(=O)O)c1Cl [compound 15] the “% visual injury, Ob” value (wild pansy (VIOTR); VIOTR, compound 4.375 g/ha, CQC-m 0 g/ha) was 0%, the “% visual injury, Ob” value (wild pansy (VIOTR); VIOTR, compound 8.75 g/ha, CQC-m 0 g/ha) was 10% and the “% visual injury, Ob” value (wild pansy (VIOTR); VIOTR, compound 17.5 g/ha, CQC-m 0 g/ha) was 10%. The “% visual injury, Ob” value (wild pansy (VIOTR); VIOTR, compound 35 g/ha, CQC-m 0 g/ha) was 20% and the “% visual injury, Ob” value (wild pansy (VIOTR); VIOTR, compound 70 g/ha, CQC-m 0 g/ha) was 30%.
